{"source": "patent US20240182526A1", "about": "“COMPOSITIONS AND METHODS FOR MODULTING INFLAMMATORY AND DEGENERATIVE DISORDER” (University of Southern California, priority 2021, published 2024)", "key": {"[1]": {"tested_on": "rat medial meniscal tear model", "test": "Rat medial meniscal tear model of osteoarthritis", "assay_type": "in vivo", "conditions": "6 weeks post-surgery", "experimental": "Immunohistochemistry. Histological staining for was performed on wild type (WT) mice, F814 mice and all mice that underwent destabilization of the medial meniscus (DMM). Six weeks after surgery, mice were sacrificed and joints were fixed in 10% formalin, decalcified in 10% EDTA and embedded in paraffin. For rat model, 6 weeks after partial medial meniscectomy (PMM), rats were sacrificed and joints were fixed in 10% formalin, decalcified in 10% EDTA and embedded in paraffin. A total of three 8 μm thick sections were made at a 200 μm interval by coronal sectioning. For canine model, 4 and 16 weeks after medial meniscal release (MMR), dogs were sacrificed and joints were fixed in 10% formalin, decalcified in 10% EDTA and embedded in paraffin. No animals were excluded from analysis. A microtome (Leica) was used to cut 5-μm sections for joints. H&E staining was performed to assess morphology. Safranin O/Fast Green staining, immunohistochemistry for proteolytic enzymes and Osteoarthritis Research Society International (OARSI) scoring was performed as described (41, 42). For OARSI scoring, observers performing the analysis were blinded as whether the slides were from treated or control animals. The stained samples were visually observed using LSCM (Zeiss LSM710, Carl Zeiss, Germany).\nRat model of osteoarthritis. All experiments were conducted ethically. […]"}, "[2]": {"tested_on": "bearded dragon (Pogona vitticeps) amputated tail", "test": "Lizard tail healing model", "assay_type": "in vivo", "conditions": "14 days post-amputation", "experimental": "Lizard Tail Healing Model. Captive bred and raised bearded dragon lizards (Pogona vitticeps) were maintained at 25.5° C. with 65% humidity on a 12 hr light/12 hr dark schedule with UVB lamp (Zoo Med) treatment during daylight hours. Care and experimental use of lizards was conducted in accordance with Institutional Animal Care and Use Committee (IACUC). Lizard tails were amputated halfway along lengths with scalpels To systemically deplete macrophage populations, lizards received intraperitoneal (IP) injections of L-α-phoshatidylcholine/cholesterol liposomes containing clodronate (0.125 mg/g) as previously described (Londono et al. J Immunol Regen Med. 2020). Control animals were treated with liposomes containing PBS instead of clodronate. Lizards were treated with R805 drug via daily direct injection (1 pmol drug) into amputated tail stumps. Lizard tail samples were collected 14 days following original tail amputation. Collected tail samples were photographed using an Olympus SZX16 stereo microscope. Images were uploaded in ImageJ (NIH, Bethesda MD) and quantified using the measure command. For labeling of proliferating cell populations with 5-ethynyl-2′-deoxyuridine (EdU) (ThermoFisher Scientific), animals received IP injections of EdU (50 mg/kg) four hours prior to sample collection. Samples to be analyzed via histology were fixed overnight in 4% paraformaldehyde, decalcified for 3 weeks in 10% EDTA (pH 7.4), equilibrated to 30% sucrose, embedded in optimal cutting temperature compound (OCT, Tissue-Tek), crypsectioned at 16 μm thickness, mounted on glass slides, and stained with 4′,6-diamidino-2-phenylindole (DAPI). Samples were stained with Masson's trichrome (American Mastertech) according to the manufacturer's instructions or immunostained for CTSK (Abcam antibody ab19027, used at 1:1000). Images were captured with an Olympus CKX41 microscope outfitted with a Keyence BZ-X800 microscope, and the areas of EdU signal were quantified with ImageJ. Statistical analysis was performed using Prism 7 with one or two-way ANOVA with pairwise Tukey's multiple comparison test for data with multiple groups. A p-value of <0.05 was deemed to be statistically significant. All values and graphs are shown as mean±SD."}}, "note": "Entries after “also recorded” stand apart in the source; their conditions may differ."}
{"compound": "Cc1ccc(-c2csc(NC(=O)c3ccccn3)n2)cc1", "note": "[Peptide R805]", "values": [{"measurement": "cartilage thickness and stiffness (indentation mapping)", "setting": "[1]; femoral condyle", "result": "maintained thickness and reduced stiffness in rat cartilage"}, {"measurement": "cartilage degeneration (Safranin O histology)", "setting": "[1]; weekly intra-articular injection", "result": "dramatically reduces the appearance of OA in rat and canine models; also recorded: prominent protective effects; also recorded: reduces cartilage degeneration"}, {"measurement": "CTSK+ macrophage recruitment to amputation site", "setting": "[2]", "result": "exhibited CTSK+ macrophage populations that extended into new tissue areas distal to amputation planes"}, {"measurement": "proliferating EdU+ cells", "setting": "[2]", "result": "significantly higher numbers of proliferating EdU+ wound epithelium and periosteal cells"}, {"measurement": "tail tissue regrowth under macrophage depletion", "setting": "[2]; R805 co-treated with clodronate liposomes", "result": "co-treatment with clodronate liposomes inhibited R805-induced tissue regrowth"}, {"measurement": "tail tissue regeneration (gross morphology, Masson's trichrome)", "setting": "[2]; daily direct injection into amputated tail stump", "result": "resulted in tissue regeneration as evidenced by blastema-like structures; also recorded: enhances lizard tail regeneration in a macrophage-dependent manner"}]}
